Experimental data from publication PMC12090182, “Repurposing of the RIPK1-Selective Benzo[1,4]oxazepin-4-one Scaffold for the Development of a Type III LIMK1/2 Inhibitor” (ACS Chemical Biology, 2025).
Where “and” joins values, the source holds several entries; their conditions need not be identical. Equal entries are not always repeated.

How the values were obtained:
Assay type in all cases: cell-based
[1] = molecular target: LIMK2 (Homo sapiens, UniProt P53671); assay: NanoBRET cellular target engagement; parameters: full-length LIMK1/2, RIPK1, BTK, and LRRK2 cloned in a frame in a NanoLuc-vector (Promega); host or cells: HEK293T; details: LIMK2, HEK293T cells
Protocol: (§1) The assay was performed as described previously.[31],[32] In brief, full-length LIMK1/2, RIPK1, BTK, and LRRK2 cloned in a frame in a NanoLuc-vector (Promega) were transfected into HEK293T cells (ATCC CRL-1573) using FuGENE HD (Promega, E2312), and proteins were allowed to express for 20 h. The serially diluted inhibitor and NanoBRET Kinase Tracer (Promega) used at the previously determined Tracer KD,app (Table S1) were pipetted into white 384-well plates (Greiner 781 207) using an ECHO 550 acoustic dispenser (Labcyte). The corresponding transfected cells were added and reseeded at a density of 2 × 10^5 cells/mL after trypsinization and resuspension in Opti-MEM without phenol red (Life Technologies). The system was allowed to equilibrate for 2 h at 37 °C and 5% CO2 prior to BRET measurements. To measure BRET, a NanoBRET Nano-Glo substrate and an extracellular NanoLuc inhibitor (Promega, N2160) were added as per the manufacturer's protocol, and filtered luminescence was measured on a PHERAstar plate reader (BMG Labtech) equipped with a luminescence filter pair (a 450 nm BP filter (donor) and a 610 nm LP filter (acceptor)). Competitive displacement data were then plotted using GraphPad Prism 10 software using a normalized three-parameter curve fit with the following equation: Y = 100/( [drawing 1] ).

[2] = molecular target: LIMK1 (Homo sapiens, UniProt P53667); assay: NanoBRET cellular target engagement; parameters: purchased Carna Biosciences; details: LIMK1, HEK293T cells
Protocol: as §1

[3] = test system: MRC-9 cells; assay: Multiplex high-content viability assessment; details: human fibroblast, 10 µM
Protocol: (§2) To assess the influence on cell health, a high-content screening in living cells called the multiplex high-content assay, as described previously by Tjaden et al., was performed.[38] In brief, HEK293T (ATCC CRL-1573) and U2OS (ATCCHTB-96) were cultured in DMEM plus L-glutamine (high glucose) supplemented by 10% FBS (Gibco) and penicillin/streptomycin (Gibco). MRC-9 fibroblasts ([…]) were cultured in EMEM plus L-glutamine supplemented by 10% FBS (Gibco) and penicillin/streptomycin (Gibco). Cells were seeded at a density of 1250 cells per well in a 384-well plate in a culture medium (cell culture microplate, PS, f-bottom, μClear, 781091, Greiner), with a volume of 50 μL per well. All outer wells were filled with 100 μL of PBS buffer (Gibco). […] The cell shape and fluorescence were measured before treatment and 12, 24, and 48 h after compound treatment using the CQ1 high-content confocal microscope (Yokogawa, Musashino, Japan). […] The compounds were tested at 1 and 10 μM, respectively. Acquired images of the cells were processed using Yokogawa CellPathfinder software (v3.04.02.02). […] Results were normalized to cells exposed to 0.1% DMSO. All compounds were tested in biological duplicates, and SEM (standard error of mean) was calculated of biological duplicates.

[4] = test system: HEK293T cells; details: HEK293T, 10 µM
Protocol: as §2

[5] = test system: U2OS cells; details: U2OS; 10 µM; 0 h after treatment
Protocol: as §2

LIMK1, sequence (P53667 whole entry): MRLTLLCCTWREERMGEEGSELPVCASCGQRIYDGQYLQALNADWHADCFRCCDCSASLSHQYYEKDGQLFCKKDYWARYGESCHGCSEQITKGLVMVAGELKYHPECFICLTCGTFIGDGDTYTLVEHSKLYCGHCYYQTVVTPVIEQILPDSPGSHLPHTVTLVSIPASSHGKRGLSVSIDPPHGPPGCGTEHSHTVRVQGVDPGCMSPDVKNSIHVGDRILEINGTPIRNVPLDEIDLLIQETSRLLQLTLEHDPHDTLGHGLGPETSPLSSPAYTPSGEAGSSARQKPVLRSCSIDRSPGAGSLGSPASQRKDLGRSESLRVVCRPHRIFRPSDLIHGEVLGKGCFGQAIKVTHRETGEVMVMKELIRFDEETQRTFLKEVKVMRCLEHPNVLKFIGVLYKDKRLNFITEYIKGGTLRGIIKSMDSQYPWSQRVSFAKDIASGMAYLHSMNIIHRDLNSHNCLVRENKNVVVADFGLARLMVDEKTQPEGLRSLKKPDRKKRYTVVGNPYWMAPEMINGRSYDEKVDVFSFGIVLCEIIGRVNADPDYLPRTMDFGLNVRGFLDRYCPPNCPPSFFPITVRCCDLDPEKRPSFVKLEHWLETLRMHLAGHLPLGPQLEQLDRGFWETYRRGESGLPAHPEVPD
LIMK2, sequence (P53671 whole entry): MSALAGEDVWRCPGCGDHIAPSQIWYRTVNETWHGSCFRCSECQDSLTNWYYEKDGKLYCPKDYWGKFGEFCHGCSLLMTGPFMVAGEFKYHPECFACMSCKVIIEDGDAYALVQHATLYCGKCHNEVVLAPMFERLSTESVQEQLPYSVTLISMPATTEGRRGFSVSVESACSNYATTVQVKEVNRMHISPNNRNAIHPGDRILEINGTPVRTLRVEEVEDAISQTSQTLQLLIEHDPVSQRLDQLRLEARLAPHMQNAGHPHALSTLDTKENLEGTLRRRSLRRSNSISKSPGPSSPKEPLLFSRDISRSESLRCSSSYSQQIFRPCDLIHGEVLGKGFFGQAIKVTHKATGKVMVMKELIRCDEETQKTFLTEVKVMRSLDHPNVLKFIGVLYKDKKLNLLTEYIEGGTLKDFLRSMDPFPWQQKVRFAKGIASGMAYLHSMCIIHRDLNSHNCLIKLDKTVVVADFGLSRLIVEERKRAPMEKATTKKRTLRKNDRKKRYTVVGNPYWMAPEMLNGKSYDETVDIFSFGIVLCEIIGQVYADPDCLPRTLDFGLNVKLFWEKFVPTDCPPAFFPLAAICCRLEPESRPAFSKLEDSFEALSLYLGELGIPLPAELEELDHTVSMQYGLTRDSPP

EC50 [1] [µM]	EC50 [2] [µM]	Structure (SMILES)	Population Healthy Nuclei (%) ([3]; 0 h after treatment)	Population Fragmented Nuclei (%) ([3]; 12 h after treatment)	Population Healthy Nuclei (%) ([3]; 12 h after treatment)	Population apoptotic cell (%) ([3]; 12 h after treatment)	Population Fragmented Nuclei (%) ([3]; 24 h after treatment)	Population Healthy Nuclei (%) ([3]; 24 h after treatment)	Population Fragmented Nuclei (%) ([3]; 48 h after treatment)	Population Healthy Nuclei (%) ([3]; 48 h after treatment)	Population with membrane disruption (%) ([4]; 0 h after treatment)	Population Healthy Nuclei (%) ([4]; 12 h after treatment)	Population cell that influence microtubule strucutre (%) ([4]; 12 h after treatment)	Population apoptotic cell (%) ([4]; 48 h after treatment)	Population with increased mitochondrial mass (%) [5]
38	42	CN1C(=O)[C@@H](N2CCc3cn(Cc4ccccc4)nc3C2=O)COc2ccccc21 [TP-030-1]	–	–	–	–	–	–	–	–	–	–	–	–	–
–	–	CN[C@@H]1C[C@H]2O[C@@](C)([C@@H]1OC)n1c3ccccc3c3c4c(c5c6ccccc6n2c5c31)C(=O)NC4 [staurosporine]	63.64% and 62.50% and 53.61% and 54.10%	57.03% and 59.76% and 57.04% and 49.59%	32.43% and 29.76% and 33.41% and 38.90%	48.72% and 46.51% and 42.50% and 50.00%	56.12% and 54.77% and 50.00% and 53.32%	37.01% and 35.97% and 41.62% and 36.60%	53.07% and 56.00% and 48.62% and 54.18%	39.48% and 36.86% and 44.48% and 39.35%	0.00	64.72% and 69.22% and 71.09%	37.22% and 35.67%	60.00% and 75.00% and 76.47%	2.11% and 3.70% and 5.56%
